Data as given in article PMC3425544, “The S100A10 Subunit of the Annexin A2 Heterotetramer Facilitates L2-Mediated Human Papillomavirus Infection” (PLoS ONE, 2012).

Legend:
[1] = system: A2t (annexin A2 heterotetramer); test: EPR binding of L2 peptide to A2t; design: species or system human; conditions: mean of three separate experiments
Excerpt: Next, we wanted to determine if there was a specific interaction between the L2_108–126 peptide and A2t using electron paramagnetic resonance (EPR) spectroscopy. EPR is a method of magnetic resonance spectroscopy measuring unpaired electrons whose underlying basic concepts are not unlike the more widely used technique of nuclear magnetic resonance (NMR) (reviewed in [43]). When coupled with site-directed paramagnetic-labeling, such as the attachment of a moiety with an unpaired electron to a cysteine residue, EPR can be used to obtain structural information within a small vicinity of the paramagnetic-label’s positions along the protein sequence. As a paramagnetic-label becomes locally constrained, such as when bound to another protein, its spectra will drastically change as visualized by a decrease in line amplitude and increased line-broadening. Therefore, EPR provides an in vitro biochemical method that measures protein-protein interactions by monitoring changes in the spectra recorded for a labeled protein in different experimental settings.
For our purposes, an N-terminal cysteine (with a 3 native aa spacer) contained in the L2_108–126 peptide (C-IVS-[…]) was paramagnetic-labeled (an unpaired-electron-containing small molecule was cross-linked via a disulfide bond to the peptide), and its spectra were analyzed after incubation with and without purified human recombinant A2t or controls. […]
Recombinant annexin A2 was expressed in BL21(DE3) Escherichia coli cells and purified using reversible Ca^2+-dependent binding to negatively charged phospholipid vesicles followed by size exclusion chromatography. […] Concentrations of all proteins and peptides, including the A2t complex, were determined using bicinchoninic acid assays (Pierce Thermo Scientific, Rockford, IL) compared to measured absorbance of albumin standards at 562 nm. […]

S100A10 subunit of A2t = test: EPR binding of L2 peptide to S100A10
Description: Recombinant annexin A2 was expressed in BL21(DE3) Escherichia coli cells and purified using reversible Ca^2+-dependent binding to negatively charged phospholipid vesicles followed by size exclusion chromatography. A pET23A vector containing the S100A10 sequence (a gift from Volker Gerke) was expressed in BL21(DE3) cells as previously described. Both proteins were stored at 4°C in 20 mM HEPES buffer at pH 7.4, containing 100 mM NaCl with the addition of 1 mM dithiothreitol. Concentrations of all proteins and peptides, including the A2t complex, were determined using bicinchoninic acid assays (Pierce Thermo Scientific, Rockford, IL) compared to measured absorbance of albumin standards at 562 nm. Purified annexin A2 and S100A10 were combined at a molar ratio of 1∶1 and concentrated to over 8 µg/µl. The mixture was incubated overnight at 4°C, and then loaded onto a superdex 200 10/300 GL (GE Healthcare USA) column equilibrated in the previously mentioned HEPES buffer. The eluted A2t peak was collected and subjected to peptide binding assays.
The L2_108–126 peptides used in our EPR studies were synthesized with a cysteine at the N-terminus, and followed by a spacer of 3 physiological amino acids (C-IVS) preceding the canonical L2_108–126 and L2 scrambled sequences (C-IVS-[…] and C-IVS-[…] respectively). Peptides were combined with 8× molar excess paramagnetic label (1-oxyl-2, 2, 5, 5-tetramethyl-Δ3-pyrroline-3-methyl) (R1) methanethiosulfonate (MTSL), (Toronto Research Chemicals, Canada) and left to react overnight at 4°C. Free label was removed by gel filtration (PD10 GE, United Kingdom). All peptides were solubilized into HEPES buffer. For competition assays, the scrambled peptide was non-paramagnetic labeled with an N-acetylated MTSL paramagnetic-label analog (1-acetyl-2,2,5,5- tetramethyl-Δ3-pyrroline-3-methyl) (R1′) at an 8× molar excess to emulate the paramagnetic label on control peptides. Binding interactions were examined by combining paramagnetically-labeled L2 peptide with A2t, BSA, ANXA2, or S100A10 (20 µM, 100 µM, 100 µM, 100 µM, and 100 µM respectively) in 10 µL volumes of the HEPES buffer, confined by glass capillaries, and measured at room temperature over a period of 24 hours using a Bruker EMX X-band EPR spectrometer. For the cysteine blocked S100A10, S100A10 was treated with R1′ and excess label was removed via gel filtration (see above) before the addition of paramagnetic labeled peptides. The experiments were done in triplicate with measurements taken at 12 db, in 5 scan intervals. All spectra were normalized to the same number of scans. To quantify the amount of bound peptide spectra of all tested proteins in combination with the L2_108–126 or ScrL2 peptides were compared to the spectra of L2_108–126 or ScrL2 peptides alone in solution using a spectra analyzing software (EPR 130, University of California, Los Angeles). By subtracting the alone peptide spectra from that of the combined samples we derive the spectra of the bound spectra, and based on double integration, relate this spectra to a concentration of the peptide that bound to the target protein.

C-IVS-LVEETSFIDAGAPTSVPSI [L2_108–126, HPV16 L2 aa 108–126 peptide with N-terminal cysteine and IVS spacer]
relative % bound to A2t ([1]; 20 µM paramagnetic-labeled (MTSL) L2 peptide, 100 µM A2t, HEPES pH 7.4, room temperature): 78.0% | relative % bound to A2t in presence of ScrL2 ([1]; non-paramagnetic-labeled ScrL2 to WT L2_108–126 5∶1 molar ratio): 75.8% | interaction with S100A10 subunit (S100A10 subunit of A2t; EPR, discussion): very strong interaction | relative % bound to S100A10 (S100A10 subunit of A2t; EPR, 20 µM peptide, 100 µM S100A10, mean of three separate experiments): 92.5% | relative % bound to cysteine-blocked S100A10 (S100A10 subunit of A2t; EPR, S100A10 cysteine-blocked with R1′ (αCys-S100A10), paramagnetic-labeled peptide, mean of three separate experiments): 73.1% | relative % bound to S100A10 in presence of ScrL2 (S100A10 subunit of A2t; EPR, scrambled peptide 5∶1, mean of three separate experiments): 91.0% | relative binding constant (K), S100A10 (S100A10 subunit of A2t; from EPR percent bound, association constant): 150000 M⁻¹
